Data as given in patent publication US12262710B2, “Fungicidal compounds” (SYNGENTA CROP PROTECTION AG, priority 2019, dated 2025).

Tests used:
[1] = system: Phytophthora infestans; test: whole plant or invertebrate; assay type: in vivo; conditions: in Solanum lycopersicum, foliar, 96 h, read-out: control of Phytophthora infestans
[2] = system: Mycosphaerella arachidis; test: Mycosphaerella arachidis syn. Cercospora arachidicola (brown leaf spot of peanut), liquid culture growth inhibition; assay type: cell-based; conditions: nutrient broth (PDB), approximately 5-6 days, photometric at 620 nm, compared to untreated control
Procedure: (§1) Conidia of the fungus from cryogenic storage were directly mixed into nutrient broth (PDB potato dextrose broth). A DMSO solution of the test compounds was placed into a microtiter plate (96-well format) and the nutrient broth containing the fungal spores was added to it. The test plates were incubated at 24° C. and the inhibition of growth was determined photometrically after approximately 5-6 5 days at 620 nm.

[3] = system: Erysiphe graminis f. sp. tritici; test: Erysiphe graminis f. sp. tritici (wheat powdery mildew), wheat leaf segments, preventive; assay type: in vivo; conditions: Blumeria graminis, foliar, 168 h, 7 dpi, compared to untreated control
Procedure: (§2) Wheat leaf segments are placed on agar in multiwell plates (24-well format) and sprayed with test solutions. After drying, the leaf disks are inoculated with spores of the fungus. After appropriate incubation the activity of a compound is assessed 7 dpi (days post inoculation) as preventive fungicidal activity.

[4] = system: Plasmopara viticola; test: Plasmopara viticola (downy mildew of grapevine), grape vine leaf disks, preventive; assay type: in vivo; conditions: foliar, 168 h, 7 dpi, compared to untreated control
Procedure: as §2, with “Grape vine” for “Wheat”, “disks” for “segments”, “a spore suspension” for “spores”, “after” for “post”

[5] = system: Puccinia recondita f. sp. tritici; test: Puccinia recondita (brown rust), preventative, wheat leaf segments; assay type: in vivo; conditions: foliar, 192 h, 8 dpi, compared to untreated control
Procedure: as §2, with “segments” for “disks”, “a spore suspension” for “spores”, “8” for “7”, “after” for “post”, “preventative” for “preventive”

[6] = system: Monographella nivalis; test: Monographella nivalis syn. Microdochium nivale (snow mould, foot rot of cereals), liquid culture growth inhibition; assay type: cell-based; conditions: nutrient broth (PDB), 72 hrs, photometric at 620 nm, compared to untreated control
Procedure: as §1, with “72 hrs” for “approximately 5-6 5 days”, “nm. […] Cercospora arachidicola (Brown Leaf Spot of Peanut): […]” for “nm.”

[7] = system: Puccinia recondita f. sp. tritici; test: Puccinia recondita (brown rust), curative, wheat leaf segments; assay type: in vivo; conditions: foliar, 192 h, sprayed 1 day after inoculation, 8 dpi, compared to untreated control
Procedure: (§3) Wheat leaf segments are placed on agar in multiwell plates (24-well format). The leaf segments are inoculated with a spore suspension of the fungus and sprayed with test solutions 1 day after inoculation. After appropriate incubation the activity of a compound is assessed 8 dpi (days after inoculation) as curative fungicidal activity.

[8] = system: Pyricularia oryzae; test: whole plant or invertebrate; assay type: in vivo; conditions: foliar, 120 h, read-out: control of Pyricularia oryzae
[9] = system: Glomerella lagenarium; test: Glomerella lagenarium syn. Colletotrichum lagenarium (anthracnose of cucurbits), liquid culture growth inhibition; assay type: cell-based; conditions: Colletotrichum orbiculare, nutrient broth (PDB), 72 hrs, photometric at 620 nm, compared to untreated control
Procedure: as §1, with “Glomerella lagenarium Syn. Colletotrichum lagenarium (Anthracnose of Cucurbits): Conidia” for “Conidia”, “72 hrs” for “approximately 5-6 5 days”, “nm. […]” for “nm.”

[10] = system: Phakopsora pachyrhizi; test: Phakopsora pachyrhizi (soybean rust), soybean leaf disks, preventive; assay type: in vivo; conditions: foliar, 288 h, approx. 12 dpi, compared to untreated control
Procedure: as §2, with “Soybean” for “Wheat”, “disks” for “segments”, “a spore suspension” for “spores”, “approx. 12” for “7”, “after” for “post”

[11] = system: Alternaria solani; test: Alternaria solani (early blight of tomatoes), tomato leaf disks; assay type: in vivo; conditions: foliar, inoculated 2 days after application, compared to untreated control
Procedure: Alternaria solani (Early Blight of Tomatoes) Tomato leaf disks are placed on agar in multiwell plates (24-well format) and sprayed with the formulated test compound diluted in water. The leaf disks are inoculated with a spore suspension of the fungus 2 days after application. The inoculated leaf disks are incubated at 23° C./21° C.

[12] = system: Puccinia recondita; test: Example C: comparative activity against Puccinia recondita (brown rust), curative, wheat leaf segments; assay type: in vivo; conditions: 8 dpi
Procedure: as §3, with “Method; Wheat” for “Wheat”, “activity. The data are presented as the percentage of disease control of each compound for the biological tests and testing rates described below in table H.” for “activity.”

[13] = system: Phakopsora pachyrhizi; test: Example D: comparative activity against Phakopsora pachyrhizi (soybean rust), soybean plants sprayed, leaf disks cut from treated plants; assay type: in vivo; conditions: 0.1% OCHIMA, leaf disks cut one day after application, approx. 12 dpi
Procedure: Method: Soybean plants are sprayed in a spray chamber with formulated DMSO compound solutions which are diluted to the appropriate concentration with 0.1% […] (adjuvant comprising polyethoxylated sorbitol hexaoleate and tris(2-ethylhexyl) phosphate) just before spraying. Leaf disks are cut from treated plants and placed on agar into 24-well plates one day after application. After, the leaf disks are inoculated with a spore suspension of the fungus. After appropriate incubation the activity of a compound is assessed approx. 12 dpi (days after inoculation) as preventive fungicidal activity. The data are presented as the percentage of disease control of each compound for the biological tests and testing rates described below in Table 1.

[14] = system: Phakopsora pachyrhizi; test: Example E: comparative activity against Phakopsora pachyrhizi (soybean rust), soybean leaf disks sprayed; assay type: in vivo; conditions: 0.025% Tween20, approx. 12 dpi
Procedure: Method: Compounds to be tested are prepared as DMSO solutions which are diluted to the appropriate concentration with 0.025% Tween20 just before spraying. Soybean leaf disks are placed on agar in multiwell plates (24-well format) and sprayed with test solutions. After drying, the leaf disks are inoculated with a spore suspension of the fungus. After appropriate incubation the activity of a compound is assessed approx. 12 dpi (days after inoculation) as preventive fungicidal activity. The data are presented as the percentage of disease control of each compound for the biological tests and testing rates described below in Table J.

Compound | pest or weed control at 200 ppm [1] | inhibition of growth at 20 ppm [2] | pest or weed control at 200 ppm [3] | pest or weed control at 200 ppm [4] | pest or weed control at 200 ppm [5] | inhibition of growth at 20 ppm [6] | pest or weed control at 200 ppm [7] | pest or weed control at 200 ppm [8] | inhibition of growth at 20 ppm [9] | pest or weed control at 200 ppm [11] | further results
CO/C=C(\Oc1cc(C2CCC(C)(C)CC2)ccc1C)C(=O)OC [E.2, methyl (Z)-2-[5-(4,4-dimethylcyclohexyl)-2-methyl-phenoxy]-3-methoxy-prop-2-enoate] | ≥ 80% | ≥ 80% | ≥ 80% | ≥ 80% | ≥ 80% | ≥ 80% |  |  |  |  | 
CO/C=C(\Oc1cc(C2CC2C2CC2)ccc1C)C(=O)OC (centres unmarked) [E.7, methyl (Z)-2-[5-(2-cyclopropylcyclopropyl)-2-methyl-phenoxy]-3-methoxy-prop-2-enoate] | ≥ 80% | ≥ 80% | ≥ 80% | ≥ 80% | ≥ 80% | ≥ 80% | ≥ 80% | ≥ 80% | ≥ 80% |  | 
CO/C=C(\Oc1cc(C2CCC(=NOC)CC2)ccc1C)C(=O)OC (centres unmarked) [E.20, methyl (Z)-3-methoxy-2-[5-(4-methoxyimino-cyclohexyl)-2-methyl-phenoxy]prop-2-enoate] |  | ≥ 80% | ≥ 80% | ≥ 80% | ≥ 80% | ≥ 80% | ≥ 80% | ≥ 80% | ≥ 80% | ≥ 80% | pest or weed control at 60 ppm [10]: ≥ 70%
CO/C=C(\Oc1cc(C2CCCCC2)c(F)cc1C)C(=O)OC [E.16, methyl (Z)-2-(5-cyclohexy1-4-fluoro-2-methyl-phenoxy)-3-methoxy-prop-2-enoate] | ≥ 80% | ≥ 80% | ≥ 80% | ≥ 80% | ≥ 80% | ≥ 80% | ≥ 80% | ≥ 80% | ≥ 80% | ≥ 80% | 
CO/C=C(\Oc1cc(C2CCCCC2)ccc1Cl)C(=O)OC [E.9, methyl (Z)-2-(2-chloro-5-cyclohexyl-phenoxy)-3-methoxy-prop-2-enoate] | ≥ 80% | ≥ 80% | ≥ 80% | ≥ 80% | ≥ 80% | ≥ 80% |  |  | ≥ 80% |  | 
CO/C=C(\Oc1cc(C2CCCC2)ccc1C)C(=O)OC [E.13, methyl (Z)-2-(5-cyclopentyl-2-methyl-phenoxy)-3-methoxy-prop-2-enoate] | ≥ 80% | ≥ 80% | ≥ 80% | ≥ 80% | ≥ 80% | ≥ 80% | ≥ 80% | ≥ 80% | ≥ 80% | ≥ 80% | pest or weed control at 60 ppm [10]: ≥ 70%; control (%) Puccinia recondita (Brown rust), curative ([12]; 20 ppm): 0%; control (%) Puccinia recondita (Brown rust), curative ([12]; 60 ppm): 0%; control (%) Puccinia recondita (Brown rust), curative ([12]; 200 ppm): 100%; control (%) Phakopsora pachyrhizi (Soybean rust) ([13]; 6 ppm): 0%; control (%) Phakopsora pachyrhizi (Soybean rust) ([13]; 20 ppm): 4%; control (%) Phakopsora pachyrhizi (Soybean rust) ([13]; 60 ppm): 46%; control (%) Phakopsora pachyrhizi (Soybean rust) ([13]; 200 ppm): 98%; control (%) Phakopsora pachyrhizi (Soybean rust) ([14]; 0.6 ppm): 10%; control (%) Phakopsora pachyrhizi (Soybean rust) ([14]; 2 ppm): 10%; control (%) Phakopsora pachyrhizi (Soybean rust) ([14]; 6 ppm): 60%; control (%) Phakopsora pachyrhizi (Soybean rust) ([14]; 20 ppm): 100%; control (%) Phakopsora pachyrhizi (Soybean rust) ([14]; 60 ppm): 100%; control (%) Phakopsora pachyrhizi (Soybean rust) ([14]; 200 ppm): 100%
CO/C=C(\Oc1cc(C2CC(C)(C)CCC2=O)ccc1C)C(=O)OC (centres unmarked) [E.5, methyl (Z)-2-[5-(5,5-dimethyl-2-oxo-cyclohexyl)-2-methyl-phenoxy]-3-methoxy-prop-2-enoate] | ≥ 80% |  | ≥ 80% | ≥ 80% | ≥ 80% |  |  |  |  |  | 
CO/C=C(\Oc1cc(C2CCC(OC(F)F)CC2)ccc1C)C(=O)OC (centres unmarked) [E.23, methyl (Z)-2-[5-[4-(difluoromethoxy)cyclohexyl]-2-methyl-phenoxy]-3-methoxy-prop-2-enoate] |  | ≥ 80% | ≥ 80% | ≥ 80% | ≥ 80% | ≥ 80% |  | ≥ 80% | ≥ 80% | ≥ 80% | 
CO/C=C(\Oc1cc(C2CCC(C(F)F)CC2)ccc1C)C(=O)OC (centres unmarked) [E.22, methyl (Z)-2-[5-[4-(difluoromethyl)cyclohexyl]-2-methyl-phenoxy]-3-methoxy-prop-2-enoate] | ≥ 80% | ≥ 80% | ≥ 80% | ≥ 80% | ≥ 80% | ≥ 80% |  |  | ≥ 80% | ≥ 80% | 
